In ChEMBL document CHEMBL6083202, “The isolation of sclerotinin A as an anti-malarial compound by utilization of a global secondary metabolism regulator, laeA gene” (Bioorg Med Chem Lett, 2024):
Converted amounts (≈) assume the structure as drawn. The source made the active and inactive calls. No cut-off for these calls is given here.

What was measured:
[1] = Selectivity index, ratio of IC50 for human HeLa cells to IC50 for chloroquine-resistant Plasmodium falciparum K1; type: toxicity, cell-based; settings: read-out: Ratio IC50
[2] = Selectivity index, ratio of IC50 for human MRC5 cells to IC50 for chloroquine-resistant Plasmodium falciparum K1; type: toxicity, cell-based; settings: read-out: Ratio IC50
Plasmodium falciparum [3] = assay: Antimalarial activity against chloroquine-resistant Plasmodium falciparum K1; type: functional, organism-based
Plasmodium falciparum [4] = assay: Antimalarial activity against chloroquine-sensitive Plasmodium falciparum FCR3; type: functional, organism-based
Saccharomyces cerevisiae = assay: Antifungal activity against multidrug sensitive Saccharomyces cerevisiae 12gene mutant 0HSR-iERG6 at 10 ug; type: functional, organism-based; settings: dose 10.0 µg
[5] = Cytotoxicity against human MRC5 cells; type: toxicity, cell-based
[6] = Cytotoxicity against human HeLa cells; type: toxicity, cell-based
[7] = Cytotoxicity against human HepG2 cells; type: toxicity, cell-based
[8] = Cytotoxicity against human A549 cells; type: toxicity, cell-based
[9] = Selectivity index, ratio of IC50 for human HepG2 cells to IC50 for chloroquine-resistant Plasmodium falciparum K1; type: toxicity, cell-based; settings: read-out: Ratio IC50
[10] = Selectivity index, ratio of IC50 for human A549 cells to IC50 for chloroquine-resistant Plasmodium falciparum K1; type: toxicity, cell-based; settings: read-out: Ratio IC50
[11] = Selectivity index, ratio of IC50 for human MRC5 cells to IC50 for chloroquine-sensitive Plasmodium falciparum FCR3; type: toxicity, cell-based; settings: read-out: Ratio IC50
[12] = Selectivity index, ratio of IC50 for human HeLa cells to IC50 for chloroquine-sensitive Plasmodium falciparum FCR3; type: toxicity, cell-based; settings: read-out: Ratio IC50
[13] = Selectivity index, ratio of IC50 for human HepG2 cells to IC50 for chloroquine-sensitive Plasmodium falciparum FCR3; type: toxicity, cell-based; settings: read-out: Ratio IC50
[14] = Selectivity index, ratio of IC50 for human A549 cells to IC50 for chloroquine-sensitive Plasmodium falciparum FCR3; type: toxicity, cell-based; settings: read-out: Ratio IC50

Q: Which selectivity ratio [1] does the source give for Cc1c(O)c(C)c2c(c1O)C(=O)OC(C)(O)[C@H]2C (stereo not given in full) here?
A: The selectivity ratio was 11.4.

Q: And the selectivity ratio [2]?
A: Its selectivity ratio is 1.4.

Q: And the IC50 (Plasmodium falciparum [3])?
A: The IC50 was 0.87 µg/mL (≈ 3.45 µM).

Q: And the IC50 (Plasmodium falciparum [4])?
A: Its IC50 is 0.62 µg/mL (≈ 2.46 µM).

Q: What about the Activity (Saccharomyces cerevisiae) of the same molecule?
A: Its Activity is “inactive”.

Q: What about the IC50 [5] of the same molecule?
A: Its IC50 is 1.2 µg/mL (≈ 4.76 µM).

Q: And the IC50 [6]?
A: The IC50 was 9.88 µg/mL (≈ 39.2 µM).

Q: What about the IC50 [7] of the same molecule?
A: The IC50 was 3.91 µg/mL (≈ 15.5 µM).

Q: What about the IC50 [8] of the same molecule?
A: Its IC50 is 15.9 µg/mL (≈ 63 µM).

Q: What about the selectivity ratio [9] of the same molecule?
A: The selectivity ratio was 4.49.

Q: What about the selectivity ratio [10] of the same molecule?
A: Its selectivity ratio is 18.3.

Q: And the selectivity ratio [11]?
A: Its selectivity ratio is 2.

Q: And the selectivity ratio [12]?
A: Its selectivity ratio is 15.9.

Q: What about the selectivity ratio [13] of the same molecule?
A: Its selectivity ratio is 6.31.

Q: What about the selectivity ratio [14] of the same molecule?
A: The selectivity ratio was 25.6.
